# Source: patent US20240009121A1, “PHARMACEUTICAL COMPOSITION CONTAINING NEUROACTIVE STEROID AND USE THEREOF” (Brii Biosciences, Inc., priority 2020, published 2024)
# Read-outs that look alike come from different tables or passages of the source.
# How the values were obtained:
# [1] = Single IV infusion PK of brexanolone in rats; type: in vivo; settings: male Sprague Dawley rat; single IV infusion 1.0 mg/kg over 30 minutes; mean
# Protocol: (§1) Following a single IV infusion in rats (1.0 mg/kg) and dogs (2.0 mg/kg) over 30 minutes, the PK parameters in Table 2 were obtained.
# (§2) In the rat and dog PK studies including brexanolone IV infusion and IM administrations, brexanolone was quantified in rat and dog plasma using a sensitive and specific analytical procedure. Analytes were separated by liquid chromatography (LC) and brexanolone was detected by positive mode electrospray tandem mass spectrometry (MS/MS). The lower limit of quantitation (LLOQ) was 1.0 to 3.0 ng/mL. In the GLP study, LLOQ was 1.0 ng/mL in the rat.
# (§3) Intravenous dosing of brexanolone was performed through a 30-min infusion via the jugular vein cannula (JVC) or a temporary percutaneous catheter placed into a lateral tail vein in rats, and via the cephalic vein in dogs. Different suspension formulations were also dosed intramuscularly into the rats and dogs in accordance with test facility standard operating procedures. At the designated time points, blood was collected via direct venipuncture of a cephalic or jugular vein in rats and via the cephalic or saphenous vein in dog. Blood was transferred into collection tubes containing K2EDTA anticoagulant and stored on ice until processed. Blood was processed for plasma by centrifugation. Plasma was then transferred into a 96-well container and stored in a freezer maintained at approximately −70° C. The quantitative analyses of the resulted plasma samples were conducted using a qualified LC-MS/MS method.
# [2] = Single IV infusion PK of brexanolone in dogs; type: in vivo; settings: male Beagle dog; single IV infusion 2.0 mg/kg over 30 minutes; mean
# Protocol: as §1, §2, §3
# [3] = test system: rat; settings: single IV slow bolus, cited from earlier work
# [4] = test system: dog; settings: single IV slow bolus, cited from earlier work
# [5] = test system: rats; settings: rat, cited from earlier work
# [6] = rat, 14-day continuous IV infusion, 18 mg/kg/day, cited from earlier work
# [7] = test system: dog; settings: cited from earlier work
# [8] = dog, 14-day continuous IV infusion, 36 mg/kg/day, cited from earlier work
# [9] = test system: Sprague Dawley rats; settings: rat, cited from earlier work
# [10] = 28-day continuous IV infusion, cited from earlier work
# [11] = test system: Beagle dogs; settings: dog, cited from earlier work
# [12] = 28-day continuous IV infusion, cited from earlier work; remark: listed apart in the source
# [13] = brexanolone IV at the MRHD of 90 μg/kg/h; cited from earlier work
# [14] = 5-day continuous IV infusion study
# [15] = 28-day continuous IV infusion, 10, 30, 60 mg/kg/day
# [16] = 28-day continuous IV infusion, 12, 36, 72 mg/kg/day
substance,measurement,setting,value
"1-(3R,5S,8R,9S,10S,13S,14S,17S)-3-hydroxy-10,13-dimethylhexadecahydro-1H-cyclopenta[a]phenanthren-17-yl) ethan-1-one [brexanolone]",AUC0-inf,[1],177 ng·h/mL
same,AUC0-t,[1],175 ng·h/mL
same,MRTinf,[1],21.5 min
same,AUC0-inf,[2],289 ng·h/mL
same,AUC0-t,[2],283 ng·h/mL
same,CL,[2],~120 mL/min/kg
same,MRTinf,[2],26.5 min
same,T1/2,[2],~101 min
same,Vss,[2],~2.99 L/kg
same,single bolus dose at which rapid anesthesia (within 1 minute) was observed,[3]; doses ≤50 mg/kg,≥ 10 mg/kg
same,maximum tolerated dose (MTD) for slow bolus administration,[3]; shallow respiration and death of one male at 50 mg/kg,30 mg/kg
same,single bolus dose at which rapid anesthesia (within 1 minute) was observed,[4]; doses ≤30 mg/kg,≥ 7.5 mg/kg
same,MTD for slow bolus administration,[4]; irregular breathing in 1 of 4 dogs at 30 mg/kg,20 mg/kg
same,MTD,[5]; [14],120 mg/kg/day
same,NOAEL for poor clinical condition resulting in premature euthanasia,[5]; 14-day continuous IV infusion study,18 mg/kg/day
same,AUC0 24 h at NOAEL,[6]; females,1790 ng·h/mL
same,Cmax at NOAEL,[6]; females,111 ng/mL
same,AUC0 24 h at NOAEL,[6]; males,2910 ng·h/mL
same,Cmax at NOAEL,[6]; males,196 ng/mL
same,MTD,[7]; [14],60 mg/kg/day
same,NOAEL,"[7]; 14-day continuous IV infusion study, convulsion in one female at 72 mg/kg/day",36 mg/kg/day
same,AUC0-24h at NOAEL,[8]; females,3840 ng·h/mL
same,Cmax at NOAEL,[8]; females,210 ng/mL
same,AUC0-24h at NOAEL,[8]; males,3560 ng·h/mL
same,Cmax at NOAEL,[8]; males,201 ng/mL
same,body weight gain compared to vehicle controls,"[9]; females, 30 mg/kg/day, Day 7 to 28",138%
same,body weight gain compared to vehicle controls,"[9]; females, 30 mg/kg/day, Day −1 to 7",160%
same,body weight gain compared to vehicle controls,"[9]; females, 60 mg/kg/day, Day 7 to 28",123%
same,body weight gain compared to vehicle controls,"[9]; females, 60 mg/kg/day, Day −1 to 7",193%
same,body weight gain compared to vehicle controls,"[9]; males, 10 mg/kg/day, first 7 days",126%
same,body weight gain compared to vehicle controls,"[9]; males, 30 mg/kg/day, first 7 days",126%
same,body weight gain compared to vehicle controls,"[9]; males, 60 mg/kg/day, Day 7 to 28",71%
same,body weight gain compared to vehicle controls,"[9]; males, 60 mg/kg/day, first 7 days",132%
same,exposure at NOAEL as multiple of the human exposure at the MRHD,[9]; 60 mg/kg/day vs human 90 μg/kg/h,5 times
same,mortality,[9]; [15],no test article or vehicle-related mortalities
same,test article related clinical observations,[9]; [15],No test article related clinical observations were noted
same,NOAEL,[9]; 28-day continuous IV infusion,60 mg/kg/day
same,AUC0-24 h (= AUC0-672 h/28),"[10]; rat F, 10 mg/kg/day",1410 ng·h/mL
same,Cmax,"[10]; rat F, 10 mg/kg/day",63.1 ng/mL
same,Css (= AUC0-672 h/672 h),"[10]; rat F, 10 mg/kg/day",58.8 ng/mL
same,AUC0-24 h (= AUC0-672 h/28),"[10]; rat F, 30 mg/kg/day",4320 ng·h/mL
same,Cmax,"[10]; rat F, 30 mg/kg/day",219 ng/mL
same,Css (= AUC0-672 h/672 h),"[10]; rat F, 30 mg/kg/day",180 ng/mL
same,AUC0-24 h (= AUC0-672 h/28),"[10]; rat F, 60 mg/kg/day",8110 ng·h/mL
same,Cmax,"[10]; rat F, 60 mg/kg/day",441 ng/mL
same,Css (= AUC0-672 h/672 h),"[10]; rat F, 60 mg/kg/day",338 ng/mL
same,AUC0-24 h (= AUC0-672 h/28),"[10]; rat M, 10 mg/kg/day",1790 ng·h/mL
same,Cmax,"[10]; rat M, 10 mg/kg/day",93.8 ng/mL
same,Css (= AUC0-672 h/672 h),"[10]; rat M, 10 mg/kg/day",74.4 ng/mL
same,AUC0-24 h (= AUC0-672 h/28),"[10]; rat M, 30 mg/kg/day",4890 ng·h/mL
same,Cmax,"[10]; rat M, 30 mg/kg/day",233 ng/mL
same,Css (= AUC0-672 h/672 h),"[10]; rat M, 30 mg/kg/day",204 ng/mL
same,AUC0-24 h (= AUC0-672 h/28),"[10]; rat M, 60 mg/kg/day",9960 ng·h/mL
same,Cmax,"[10]; rat M, 60 mg/kg/day",464 ng/mL
same,Css (= AUC0-672 h/672 h),"[10]; rat M, 60 mg/kg/day",415 ng/mL
same,exposure at NOAEL relative to the human exposure at the MRHD,[11]; 12 mg/kg/day vs human 90 μg/kg/h,equivalent to the human exposure
same,mortality,[11]; [16],no test article- or vehicle-related mortalities
same,test article-related clinical signs,[11]; [16],limited to one male dosed with 36 mg/kg which had a convulsion occurring 4 days after completing the 28-day infusion
same,NOAEL,"[11]; 28-day continuous IV infusion, based on convulsion in one 36 mg/kg dog and SBECD-related renal tubular vacuolation at ≥36 mg/kg",12 mg/kg/day
same,AUC0-24 h (= AUC0-672 h/28),"[12]; dog F, 12 mg/kg/day",1820 ng·h/mL
same,Cmax,"[12]; dog F, 12 mg/kg/day",97.3 ng/mL
same,Css (= AUC0-672 h/672 h),"[12]; dog F, 12 mg/kg/day",75.9 ng/mL
same,AUC0-24 h (= AUC0-672 h/28),"[12]; dog F, 36 mg/kg/day",6960 ng·h/mL
same,Cmax,"[12]; dog F, 36 mg/kg/day",338 ng/mL
same,Css (= AUC0-672 h/672 h),"[12]; dog F, 36 mg/kg/day",290 ng/mL
same,AUC0-24 h (= AUC0-672 h/28),"[12]; dog F, 72 mg/kg/day",11300 ng·h/mL
same,Cmax,"[12]; dog F, 72 mg/kg/day",571 ng/mL
same,Css (= AUC0-672 h/672 h),"[12]; dog F, 72 mg/kg/day",471 ng/mL
same,AUC0-24 h (= AUC0-672 h/28),"[12]; dog M, 12 mg/kg/day",1680 ng·h/mL
same,Cmax,"[12]; dog M, 12 mg/kg/day",89.3 ng/mL
same,Css (= AUC0-672 h/672 h),"[12]; dog M, 12 mg/kg/day",69.9 ng/mL
same,AUC0-24 h (= AUC0-672 h/28),"[12]; dog M, 36 mg/kg/day",5760 ng·h/mL
same,Cmax,"[12]; dog M, 36 mg/kg/day",310 ng/mL
same,Css (= AUC0-672 h/672 h),"[12]; dog M, 36 mg/kg/day",240 ng/mL
same,AUC0-24 h (= AUC0-672 h/28),"[12]; dog M, 72 mg/kg/day",12900 ng·h/mL
same,Cmax,"[12]; dog M, 72 mg/kg/day",708 ng/mL
same,Css (= AUC0-672 h/672 h),"[12]; dog M, 72 mg/kg/day",538 ng/mL
same,human exposure AUC0-24h,[13],1800 ng·h/mL
same,human exposure Css,[13],74.3 ng/mL
